Assay results: patent US6310091A, “Fungicidal saponin, CAY-1, and isolation thereof from Capsium species fruit” (The United States of America as represented by the …, priority 2000, dated 2001)
Values joined by “and” are separate entries in the source; they are usually repeats but may differ in a detail not shown here. Identical values can stand only once. Like-named read-outs stand apart in the source and are kept apart here.

System: Aspergillus fumigatus
Assay: Fungicidal bioassay on nongerminated and germinating conidia of A. fumigatus
Format: cell-based
Conditions: for activity at 2 µM / activity at 3 µM / activity at 4 µM / activity at 5 µM / activity at 7.5 µM / activity at 10 µM / activity at 0.5 µM / activity at 1 µM / activity at 1.5 µM / activity at 2.5 µM: read-out: Percent of Mean Control
Experimental: 1. Filamentous fungi. Filamentous fungi used in bioassays included Aspergillus flavus, A. fumigatus, A. niger, A. parasiticus and Fusarium oxysporum. The fungicidal properties of CAY-1 for the nongerminated and germinating conidia of these fungi were determined separately as described by De Lucca et al. [Med. Mycol., 36:291-298 (1998)] and De Lucca et al. [Antimicrob. Agents Chemother. 43:371-373 (1999)]. […] Two separate experiments were conducted in each medium (n=8 per medium).
A suspension of the aforementioned fungi were prepared separately in the appropriate medium. Conidia (10^4 conidia/ml) were used immediately for the nongerminated conidial assays while conidia (10^5 conidia/ml) were incubated for 7.5 hours at 30° C. to obtain germinating conidia. Serial dilutions of CAY-1 were prepared in the appropriate medium (totaling 225 μl) to which was added 25 μl of the conidial suspensions. The control consisted of 225 μl of medium and 25 μl of the conidial suspension. After mixing, the samples were incubated for 30 min (30° C.). Samples were then spread on potato dextrose agar plates which were incubated at 30° C. for 24 hours. Colonies were then enumerated.
Statistical analyses. ANOVA analyses on ranks for nonparametric data were performed for the bioassays described in this example.

[1] = Aspergillus fumigatus, 0.5 h, read-out: LD95

Question: For `CC1CCC2(OC1)OC1CC3C4CCC5CC(OC6OC(CO)C(OC7OC(CO)C(O)C(OC8OC(CO)C(O)C(OC9OC(CO)C(O)C(O)C9O)C8O)C7OC7OC(CO)C(O)C(O)C7O)C(O)C6O)C(O)CC5(C)C4CCC3(C)C1C2C` (stereo not shown) [CAY-1], which activity at 2 µM (Aspergillus fumigatus, 0.5 h, germinating, 1% PDB, 2.0 μM) is on record?
Answer: 96.1%

Question: What about the activity at 3 µM (Aspergillus fumigatus, 0.5 h, germinating, 1% PDB, 3.0 μM) of the same compound?
Answer: 49.9%

Question: What about the activity at 4 µM (Aspergillus fumigatus, 0.5 h, germinating, 1% PDB, 4.0 μM) of the same compound?
Answer: 14.4%

Question: What about the activity at 5 µM (Aspergillus fumigatus, 0.5 h, germinating, 1% PDB, 5.0 μM) of the same compound?
Answer: 6.1%

Question: What about the activity at 7.5 µM (Aspergillus fumigatus, 0.5 h, germinating, 1% PDB, 7.5 μM) of the same compound?
Answer: 2.8%

Question: What about the activity at 10 µM (Aspergillus fumigatus, 0.5 h, germinating, 1% PDB, 10.0 μM) of the same compound?
Answer: 0.2%

Question: What about the activity at 0.5 µM (Aspergillus fumigatus, 0.5 h, germinating, RPMI-1640, 0.5 μM) of the same compound?
Answer: 92.4%

Question: And the activity at 1 µM (Aspergillus fumigatus, 0.5 h, germinating, RPMI-1640, 1.0 μM)?
Answer: 105%

Question: And the activity at 1.5 µM (Aspergillus fumigatus, 0.5 h, germinating, RPMI-1640, 1.5 μM)?
Answer: 117%

Question: And the activity at 2 µM (Aspergillus fumigatus, 0.5 h, germinating, RPMI-1640, 2.0 μM)?
Answer: 118%

Question: What about the activity at 2.5 µM (Aspergillus fumigatus, 0.5 h, germinating, RPMI-1640, 2.5 μM) of the same compound?
Answer: 114%

Question: What about the activity at 3 µM (Aspergillus fumigatus, 0.5 h, germinating, RPMI-1640, 3.0 μM) of the same compound?
Answer: 40.7%

Question: What about the activity at 4 µM (Aspergillus fumigatus, 0.5 h, germinating, RPMI-1640, 4.0 μM) of the same compound?
Answer: 5.1%

Question: What about the activity at 2 µM (Aspergillus fumigatus, 0.5 h, nongerminated, 1% PDB, 2.0 μM) of the same compound?
Answer: 93.9%

Question: And the activity at 3 µM (Aspergillus fumigatus, 0.5 h, nongerminated, 1% PDB, 3.0 μM)?
Answer: 80.4%

Question: And the activity at 4 µM (Aspergillus fumigatus, 0.5 h, nongerminated, 1% PDB, 4.0 μM)?
Answer: 88.5%

Question: And the activity at 5 µM (Aspergillus fumigatus, 0.5 h, nongerminated, 1% PDB, 5.0 μM)?
Answer: 86.7%

Question: And the activity at 7.5 µM (Aspergillus fumigatus, 0.5 h, nongerminated, 1% PDB, 7.5 μM)?
Answer: 96.6%

Question: And the activity at 10 µM (Aspergillus fumigatus, 0.5 h, nongerminated, 1% PDB, 10.0 μM)?
Answer: 101%

Question: And the activity at 0.5 µM (Aspergillus fumigatus, 0.5 h, nongerminated, RPMI-1640, 0.5 μM)?
Answer: 117%

Question: And the activity at 1 µM (Aspergillus fumigatus, 0.5 h, nongerminated, RPMI-1640, 1.0 μM)?
Answer: 132%

Question: And the activity at 1.5 µM (Aspergillus fumigatus, 0.5 h, nongerminated, RPMI-1640, 1.5 μM)?
Answer: 97.4%

Question: And the activity at 2 µM (Aspergillus fumigatus, 0.5 h, nongerminated, RPMI-1640, 2.0 μM)?
Answer: 109%

Question: And the activity at 2.5 µM (Aspergillus fumigatus, 0.5 h, nongerminated, RPMI-1640, 2.5 μM)?
Answer: 96.5%

Question: What about the activity at 3 µM (Aspergillus fumigatus, 0.5 h, nongerminated, RPMI-1640, 3.0 μM) of the same compound?
Answer: 103%

Question: And the LD95 (concentration killing 95% of conidia) [1]?
Answer: 4 µM

Question: What about the LD95 (concentration lethal to 95% of conidia) [1] of the same compound?
Answer: 5 µg/mL

Question: And the minimal effective concentration (Aspergillus fumigatus, 0.5 h, read-out: concentration achieving significant lethality)?
Answer: 3 µM and 3.7 µg/mL

Question: What about the minimal effective concentration (Aspergillus fumigatus, 0.5 h, read-out: concentration required for statistically significant viability reduction) of the same compound?
Answer: 12.4 µg/mL

Question: What about the minimal effective concentration (Aspergillus fumigatus, 0.5 h, germinating conidia, RPMI-1640, p=0.0002, read-out: concentration required for statistically significant viability reduction) of the same compound?
Answer: 10 µM

Question: What about the “Mean No. of Colonies” value (germinating, 1% PDB, 2.0 μM) of the same compound?
Answer: 44.1

Question: And the “Mean No. of Colonies” value (germinating, 1% PDB, 3.0 μM)?
Answer: 22.9

Question: What about the “Mean No. of Colonies” value (germinating, 1% PDB, 4.0 μM) of the same compound?
Answer: 6.6

Question: And the “Mean No. of Colonies” value (germinating, 1% PDB, 5.0 μM)?
Answer: 2.8

Question: What about the “Mean No. of Colonies” value (germinating, 1% PDB, 7.5 μM) of the same compound?
Answer: 1.3

Question: And the “Mean No. of Colonies” value (germinating, 1% PDB, 10.0 μM)?
Answer: 0.1

Question: What about the “Mean No. of Colonies” value (germinating, RPMI-1640, 0.5 μM) of the same compound?
Answer: 10.9

Question: What about the “Mean No. of Colonies” value (germinating, RPMI-1640, 1.0 μM) of the same compound?
Answer: 12.4

Question: And the “Mean No. of Colonies” value (germinating, RPMI-1640, 1.5 μM)?
Answer: 13.8

Question: And the “Mean No. of Colonies” value (germinating, RPMI-1640, 2.0 μM)?
Answer: 13.9

Question: And the “Mean No. of Colonies” value (germinating, RPMI-1640, 2.5 μM)?
Answer: 13.5

Question: What about the “Mean No. of Colonies” value (germinating, RPMI-1640, 3.0 μM) of the same compound?
Answer: 4.8

Question: What about the “Mean No. of Colonies” value (germinating, RPMI-1640, 4.0 μM) of the same compound?
Answer: 0.6

Question: And the “viability of nongerminated conidia” value (nongerminated conidia, either test medium)?
Answer: not affected

Question: What about the “Mean No. of Colonies” value (nongerminated, 1% PDB, 2.0 μM) of the same compound?
Answer: 57.4

Question: And the “Mean No. of Colonies” value (nongerminated, 1% PDB, 3.0 μM)?
Answer: 49.1

Question: And the “Mean No. of Colonies” value (nongerminated, 1% PDB, 4.0 μM)?
Answer: 54.1

Question: And the “Mean No. of Colonies” value (nongerminated, 1% PDB, 5.0 μM)?
Answer: 53.0

Question: What about the “Mean No. of Colonies” value (nongerminated, 1% PDB, 7.5 μM) of the same compound?
Answer: 59.0

Question: What about the “Mean No. of Colonies” value (nongerminated, 1% PDB, 10.0 μM) of the same compound?
Answer: 61.8

Question: What about the “Mean No. of Colonies” value (nongerminated, RPMI-1640, 0.5 μM) of the same compound?
Answer: 27.0

Question: And the “Mean No. of Colonies” value (nongerminated, RPMI-1640, 1.0 μM)?
Answer: 30.6
